{"source": "paper PMC5218480", "about": "(PLoS ONE, 2017)", "system": "MV-4-11 cells", "experiment": "Gene expression microarray analysis (Affymetrix PrimeView) and GSEA", "format": "cell-based, human", "set-up": "RFU PODN (11730768_x_at) / Fold change /veh PODN (11730768_x_at) / RFU LINC00158 (11744669_a_at) / Fold change /veh LINC00158 (11744669_a_at) / RFU DUSP10 (11751237_a_at) / Fold change /veh DUSP10 (11751237_a_at) / RFU ID3 (11757404_x_at) / Fold change /veh ID3 (11757404_x_at) / RFU PLEKHG5 (11737974_s_at) / Fold change /veh PLEKHG5 (11737974_s_at) / RFU LRRC4B (11730491_at) / Fold change /veh LRRC4B (11730491_at) / RFU GIMAP4 (11747438_a_at) / Fold change /veh GIMAP4 (11747438_a_at) / RFU KRT8 (11758183_x_at) / Fold change /veh KRT8 (11758183_x_at) / RFU CNN1 (11734310_a_at) / Fold change /veh CNN1 (11734310_a_at) / RFU VPS37D (11726825_at) / Fold change /veh VPS37D (11726825_at) / RFU C10orf10 (11716522_x_at) / Fold change /veh C10orf10 (11716522_x_at) / RFU KIR2DL2 /// KIR2DL4 /// KIR2DL5A /// KIR2DL5B /// KIR2DS1 /// KIR2DS2 /// KIR2DS3 /// KIR2DS4 /// KIR3DL3 /// KIR3DL3 /// KIR3DS1 (11738374_at) / Fold change /veh KIR2DL2 /// KIR2DL4 /// KIR2DL5A /// KIR2DL5B /// KIR2DS1 /// KIR2DS2 /// KIR2DS3 /// KIR2DS4 /// KIR3DL3 /// KIR3DL3 /// KIR3DS1 (11738374_at) / RFU C1QL1 (11718748_at) / Fold change /veh C1QL1 (11718748_at) / RFU TMPRSS4 (11747572_a_at) / Fold change /veh TMPRSS4 (11747572_a_at) / RFU HAMP (11756126_x_at) / Fold change /veh HAMP (11756126_x_at) / RFU RNFT2 (11725882_a_at) / Fold change /veh RNFT2 (11725882_a_at) / RFU NR4A2 (11747474_a_at) / Fold change /veh NR4A2 (11747474_a_at) / RFU ABCC12 (11746883_a_at) / Fold change /veh ABCC12 (11746883_a_at) / RFU TMEM136 (11760407_x_at) / Fold change /veh TMEM136 (11760407_x_at) / RFU CLDN22 /// WWC2 (11732394_at) / Fold change /veh CLDN22 /// WWC2 (11732394_at) / RFU HLA-DPB1 (11760878_x_at) / Fold change /veh HLA-DPB1 (11760878_x_at) / RFU SPINT1 (11716480_a_at) / Fold change /veh SPINT1 (11716480_a_at) / RFU GAP43 (11754022_s_at) / Fold change /veh GAP43 (11754022_s_at) / RFU A4GNT (11735810_at) / Fold change /veh A4GNT (11735810_at) / RFU PRB3 (11715151_x_at) / Fold change /veh PRB3 (11715151_x_at) / RFU TUBB4B (11761932_at) / Fold change /veh TUBB4B (11761932_at) / RFU CAPN14 (11732068_a_at) / Fold change /veh CAPN14 (11732068_a_at) / RFU TMCC2 (11721928_a_at) / Fold change /veh TMCC2 (11721928_a_at) / RFU IRGQ (11745062_a_at) / Fold change /veh IRGQ (11745062_a_at) / RFU FAM174B (11720279_a_at) / Fold change /veh FAM174B (11720279_a_at) / RFU TMPRSS4 (11748680_a_at) / Fold change /veh TMPRSS4 (11748680_a_at) / RFU FAM212B (11763350_a_at) / Fold change /veh FAM212B (11763350_a_at) / RFU PLEKHG5 (11743358_a_at) / Fold change /veh PLEKHG5 (11743358_a_at) / RFU ZSCAN30 (11745921_a_at) / Fold change /veh ZSCAN30 (11745921_a_at) / RFU CMKLR1 (11741424_a_at) / Fold change /veh CMKLR1 (11741424_a_at) / RFU LOC101060620 /// MAPK8IP1 (11723275_at) / Fold change /veh LOC101060620 /// MAPK8IP1 (11723275_at) / RFU SPTSSB (11747773_x_at) / Fold change /veh SPTSSB (11747773_x_at) / RFU PRSS12 (11739890_at) / Fold change /veh PRSS12 (11739890_at) / RFU BIN1 (11741810_x_at) / Fold change /veh BIN1 (11741810_x_at) / RFU WNT11 (11732464_a_at) / Fold change /veh WNT11 (11732464_a_at) / RFU C10orf10 (11716521_a_at) / Fold change /veh C10orf10 (11716521_a_at) / RFU C5orf56 (11738089_at) / Fold change /veh C5orf56 (11738089_at) / RFU CYB561 (11721691_x_at) / Fold change /veh CYB561 (11721691_x_at) / RFU ANKRD19P (11752326_a_at) / Fold change /veh ANKRD19P (11752326_a_at) / RFU OR2T12 /// OR2T33 /// OR2T8 (11738714_s_at) / Fold change /veh OR2T12 /// OR2T33 /// OR2T8 (11738714_s_at) / RFU VCAN (11748164_a_at) / Fold change /veh VCAN (11748164_a_at) / RFU JSRP1 (11732532_at) / Fold change /veh JSRP1 (11732532_at) / RFU KRTAP10-11 (11738290_x_at) / Fold change /veh KRTAP10-11 (11738290_x_at) / RFU MYO3A (11730013_a_at) / Fold change /veh MYO3A (11730013_a_at) / RFU EBF3 (11725865_a_at) / Fold change /veh EBF3 (11725865_a_at) / RFU CAMK2N1 (11719241_x_at) / Fold change /veh CAMK2N1 (11719241_x_at) / RFU C5orf56 (11738088_a_at) / Fold change /veh C5orf56 (11738088_a_at) / RFU OLFML3 (11715873_a_at) / Fold change /veh OLFML3 (11715873_a_at) / RFU LOC100653217 /// NTM (11731650_a_at) / Fold change /veh LOC100653217 /// NTM (11731650_a_at) / RFU MAPK11 (11762145_a_at) / Fold change /veh MAPK11 (11762145_a_at) / RFU FIZ1 (11724087_x_at) / Fold change /veh FIZ1 (11724087_x_at) / RFU OASL (11726364_x_at) / Fold change /veh OASL (11726364_x_at) / RFU SOX15 (11748057_x_at) / Fold change /veh SOX15 (11748057_x_at) / RFU CD79A (11719716_a_at) / Fold change /veh CD79A (11719716_a_at) / RFU HIST1H1D (11736915_at) / Fold change /veh HIST1H1D (11736915_at) / RFU CASKIN2 (11723855_a_at) / Fold change /veh CASKIN2 (11723855_a_at) / RFU LOC730098 (11760151_x_at) / Fold change /veh LOC730098 (11760151_x_at) / RFU OR4N2 (11742367_at) / Fold change /veh OR4N2 (11742367_at) / RFU PRRT2 (11749266_a_at) / Fold change /veh PRRT2 (11749266_a_at) / RFU SNX32 (11753110_a_at) / Fold change /veh SNX32 (11753110_a_at) / RFU CDHR5 (11726645_a_at) / Fold change /veh CDHR5 (11726645_a_at) / RFU RCAN1 (11760418_a_at) / Fold change /veh RCAN1 (11760418_a_at) / RFU FAM167A (11723789_a_at) / Fold change /veh FAM167A (11723789_a_at) / RFU FAM26E (11764081_at) / Fold change /veh FAM26E (11764081_at) / RFU ISYNA1 (11749810_s_at) / Fold change /veh ISYNA1 (11749810_s_at) / RFU ACY1 (11761880_at) / Fold change /veh ACY1 (11761880_at) / RFU 11764098_at / Fold change /veh 11764098_at / RFU SAMD14 (11745864_x_at) / Fold change /veh SAMD14 (11745864_x_at) / RFU NPB (11741838_a_at) / Fold change /veh NPB (11741838_a_at) / RFU TMPRSS6 (11731388_a_at) / Fold change /veh TMPRSS6 (11731388_a_at) / RFU KRTAP10-2 (11738614_at) / Fold change /veh KRTAP10-2 (11738614_at) / RFU ARHGAP8 /// PRR5-ARHGAP8 (11727945_x_at) / Fold change /veh ARHGAP8 /// PRR5-ARHGAP8 (11727945_x_at) / RFU KRTAP5-7 /// NADSYN1 (11734609_at) / Fold change /veh KRTAP5-7 /// NADSYN1 (11734609_at) / RFU RASL12 (11751679_a_at) / Fold change /veh RASL12 (11751679_a_at) / RFU CDKN2B (11736163_a_at) / Fold change /veh CDKN2B (11736163_a_at) / RFU PRF1 (11729649_at) / Fold change /veh PRF1 (11729649_at) / RFU, ZNF638 /// ZNF638-IT1 / Fold change vs veh, ZNF638 /// ZNF638-IT1 / RFU, PANK3 / Fold change vs veh, PANK3 / RFU, SH3YL1 / Fold change vs veh, SH3YL1 / RFU, ZEB2 / Fold change vs veh, ZEB2 / RFU, NRIP1 / Fold change vs veh, NRIP1 / RFU, PTTG1IP / Fold change vs veh, PTTG1IP / RFU, CAPN2 / Fold change vs veh, CAPN2 / RFU, MED14 / Fold change vs veh, MED14 / RFU, SNORA58 / Fold change vs veh, SNORA58 / RFU, C1orf63 / Fold change vs veh, C1orf63 / RFU, LRRFIP1 / Fold change vs veh, LRRFIP1 / RFU, NDUFAF7 / Fold change vs veh, NDUFAF7 / RFU, SLC12A2 / Fold change vs veh, SLC12A2 / RFU, IBTK / Fold change vs veh, IBTK / RFU, ESF1 / Fold change vs veh, ESF1 / Fold change vs veh, TMEM50B / RFU, TAOK1 / Fold change vs veh, TAOK1 / RFU, ACBD3 / Fold change vs veh, ACBD3 / RFU, TMA16 / Fold change vs veh, TMA16 / RFU, RWDD3 / Fold change vs veh, RWDD3 / RFU, BCAT1 / Fold change vs veh, BCAT1 / RFU, EDEM3 / Fold change vs veh, EDEM3 / RFU, TMEM33 / Fold change vs veh, TMEM33 / RFU, WDR75 / Fold change vs veh, WDR75 / RFU, AHCTF1 / Fold change vs veh, AHCTF1 / RFU, TFRC / Fold change vs veh, TFRC / RFU, ZDHHC17 / Fold change vs veh, ZDHHC17 / RFU, NOM1 / Fold change vs veh, NOM1 / RFU, ARL8B / Fold change vs veh, ARL8B / RFU, ZBTB11 / Fold change vs veh, ZBTB11 / RFU, TAMM41 / Fold change vs veh, TAMM41 / RFU, KIAA1704 /// LOC100996395 / Fold change vs veh, KIAA1704 /// LOC100996395 / RFU, ING1 / Fold change vs veh, ING1 / RFU, TRMT61B / Fold change vs veh, TRMT61B / RFU, FUBP3 / Fold change vs veh, FUBP3 / RFU, TP53 / Fold change vs veh, TP53 / RFU, TNKS2 / Fold change vs veh, TNKS2 / RFU, ZFP14 / Fold change vs veh, ZFP14 / RFU, ACTR2 / Fold change vs veh, ACTR2 / RFU, PPP3R1 / Fold change vs veh, PPP3R1 / RFU, PIK3R1 / Fold change vs veh, PIK3R1 / RFU, HNRNPA1 / Fold change vs veh, HNRNPA1 / RFU, RNF170 / Fold change vs veh, RNF170 / RFU, ZNF28 / Fold change vs veh, ZNF28 / RFU, RNGTT / Fold change vs veh, RNGTT / RFU, OGT / Fold change vs veh, OGT / RFU, BRD1 / Fold change vs veh, BRD1 / RFU, MARS / Fold change vs veh, MARS / RFU, ZNF655 / Fold change vs veh, ZNF655 / RFU, FAHD1 / Fold change vs veh, FAHD1 / RFU, BDP1 / Fold change vs veh, BDP1 / RFU, LRRCC1 / Fold change vs veh, LRRCC1 / RFU, ARID1A / Fold change vs veh, ARID1A / RFU, ZNF146 / Fold change vs veh, ZNF146 / RFU, ZNF330 / Fold change vs veh, ZNF330 / RFU, GPN3 / Fold change vs veh, GPN3 / RFU, C9orf123 / Fold change vs veh, C9orf123 / RFU, N4BP2L2 / Fold change vs veh, N4BP2L2 / RFU, ARFIP1 / Fold change vs veh, ARFIP1 / RFU, FAM179B / Fold change vs veh, FAM179B / RFU, BCL10 / Fold change vs veh, BCL10 / RFU, UHRF1BP1L / Fold change vs veh, UHRF1BP1L / RFU, BET1 / Fold change vs veh, BET1 / RFU, CNOT2 / Fold change vs veh, CNOT2 / RFU, ZNF268 / Fold change vs veh, ZNF268 / Fold change vs veh, ZNF507 / RFU, DGCR2 / Fold change vs veh, DGCR2 / RFU, WDSUB1 / Fold change vs veh, WDSUB1 / Fold change vs veh, HSP90B1 /// MIR3652 / RFU, ADSS / Fold change vs veh, ADSS / RFU, GK / Fold change vs veh, GK / RFU, ZNF148 / Fold change vs veh, ZNF148 / RFU, TAF9 / Fold change vs veh, TAF9 / RFU, SLC1A5 / Fold change vs veh, SLC1A5 / RFU, SLMO2 / Fold change vs veh, SLMO2 / RFU, ABCC4 / Fold change vs veh, ABCC4 / RFU, LOC101060439 /// RAP1B / Fold change vs veh, LOC101060439 /// RAP1B / RFU, RFX7 / Fold change vs veh, RFX7 / RFU, GTPBP10 / Fold change vs veh, GTPBP10 / RFU, CNEP1R1 / Fold change vs veh, CNEP1R1 / RFU, BIVM-ERCC5 /// ERCC5 / Fold change vs veh, BIVM-ERCC5 /// ERCC5 / RFU, ILF3 / Fold change vs veh, ILF3 / RFU 11762660_at / Fold change /veh 11762660_at / RFU VCAN (11757783_s_at) / Fold change /veh VCAN (11757783_s_at) / RFU DDX43 (11728927_at) / Fold change /veh DDX43 (11728927_at) / RFU KRT8 (11758188_x_at) / Fold change /veh KRT8 (11758188_x_at) / RFU NKD1 (11759106_at) / Fold change /veh NKD1 (11759106_at) / RFU SRD5A1 (11742802_a_at) / Fold change /veh SRD5A1 (11742802_a_at) / RFU TPSAB1 /// TPSB2 (11721975_s_at) / Fold change /veh TPSAB1 /// TPSB2 (11721975_s_at) / RFU GSTM3 (11746129_a_at) / Fold change /veh GSTM3 (11746129_a_at) / RFU IL23R (11737362_x_at) / Fold change /veh IL23R (11737362_x_at) / RFU TMEM51 (11727254_a_at) / Fold change /veh TMEM51 (11727254_a_at) / RFU PIWIL2 (11732686_x_at) / Fold change /veh PIWIL2 (11732686_x_at) / RFU ORM1 (11744905_x_at) / Fold change /veh ORM1 (11744905_x_at) / RFU CCDC152 (11743942_at) / Fold change /veh CCDC152 (11743942_at) / RFU ECM1 (11717891_a_at) / Fold change /veh ECM1 (11717891_a_at) / RFU IL23R (11748794_a_at) / Fold change /veh IL23R (11748794_a_at) / RFU TNFAIP8L3 (11732012_x_at) / Fold change /veh TNFAIP8L3 (11732012_x_at) / RFU MBOAT4 (11741988_at) / Fold change /veh MBOAT4 (11741988_at) / RFU 11764193_at / Fold change /veh 11764193_at / RFU TMEM53 (11763286_at) / Fold change /veh TMEM53 (11763286_at) / RFU MAGEB2 (11727129_at) / Fold change /veh MAGEB2 (11727129_at) / RFU TMEM200A (11744735_a_at) / Fold change /veh TMEM200A (11744735_a_at) / RFU CCDC152 (11751479_a_at) / Fold change /veh CCDC152 (11751479_a_at) / RFU FAM211A (11726209_a_at) / Fold change /veh FAM211A (11726209_a_at) / RFU RGS16 (11746705_a_at) / Fold change /veh RGS16 (11746705_a_at) / RFU VCAN (11755009_s_at) / Fold change /veh VCAN (11755009_s_at) / RFU RHOB (11743442_s_at) / Fold change /veh RHOB (11743442_s_at) / RFU RGS16 (11720943_a_at) / Fold change /veh RGS16 (11720943_a_at) / RFU RGS16 (11720944_at) / Fold change /veh RGS16 (11720944_at) / RFU, VPS4B / Fold change vs veh, VPS4B / RFU, CREB1 / Fold change vs veh, CREB1 / RFU, DNAJC13 / Fold change vs veh, DNAJC13 / RFU, GNAQ / Fold change vs veh, GNAQ / RFU, CDK5R1 / Fold change vs veh, CDK5R1 / RFU, ZRANB3 / Fold change vs veh, ZRANB3 / RFU, CUL4A / Fold change vs veh, CUL4A / RFU, CCNY / Fold change vs veh, CCNY / RFU, UFL1 / Fold change vs veh, UFL1 / RFU, COG3 / Fold change vs veh, COG3 / RFU, DIAPH2 / Fold change vs veh, DIAPH2 / RFU, SKA2 / Fold change vs veh, SKA2 / RFU, AFF3 / Fold change vs veh, AFF3 / RFU, LMF1 / Fold change vs veh, LMF1 / RFU, IPO11 / Fold change vs veh, IPO11 / RFU, DFFB / Fold change vs veh, DFFB / RFU, FOXP1 / Fold change vs veh, FOXP1 / RFU, CARD8 / Fold change vs veh, CARD8 / RFU, STRN3 / Fold change vs veh, STRN3 / RFU, ADK / Fold change vs veh, ADK / RFU, RASSF2 / Fold change vs veh, RASSF2 / RFU, WIPF1 / Fold change vs veh, WIPF1 / RFU, LARP1B / Fold change vs veh, LARP1B / RFU, RASA1 / Fold change vs veh, RASA1 / RFU, RB1 / Fold change vs veh, RB1 / RFU, PPFIA1 / Fold change vs veh, PPFIA1 / RFU, MAT2A / Fold change vs veh, MAT2A / RFU, CCT5 / Fold change vs veh, CCT5 / RFU, WDR92 / Fold change vs veh, WDR92 / RFU, CUX1 / Fold change vs veh, CUX1 / RFU, TTC7A / Fold change vs veh, TTC7A / RFU, TMEM135 / Fold change vs veh, TMEM135 / RFU, DEPTOR / Fold change vs veh, DEPTOR / RFU, CPM / Fold change vs veh, CPM / RFU, DNAJB6 / Fold change vs veh, DNAJB6 / RFU, CACNA2D3 / Fold change vs veh, CACNA2D3 / RFU, DTX4 / Fold change vs veh, DTX4 / RFU, TFCP2 / Fold change vs veh, TFCP2 / RFU, GMCL1 /// GMCL1P1 / Fold change vs veh, GMCL1 /// GMCL1P1 / RFU, AEBP2 / Fold change vs veh, AEBP2 / RFU, SNHG1 /// SNORD22 /// SNORD25 /// SNORD26 /// SNORD27 /// SNORD28 /// SNORD29 /// SNORD31 / Fold change vs veh, SNHG1 /// SNORD22 /// SNORD25 /// SNORD26 /// SNORD27 /// SNORD28 /// SNORD29 /// SNORD31 / Fold change (Aza/veh), C12orf56 (ProbeSet 11735607_a_at) / Fold change (ACY-1035/veh), C12orf56 (ProbeSet 11735607_a_at) / Fold change (Aza/veh), FGFR1OP (ProbeSet 11751329_s_at) / Fold change (ACY-1035/veh), FGFR1OP (ProbeSet 11751329_s_at) / Fold change (Aza/veh), VPS36 (ProbeSet 11739960_a_at) / Fold change (ACY-1035/veh), VPS36 (ProbeSet 11739960_a_at) / RFU SYPL1 (11715823_x_at) / Fold change /veh SYPL1 (11715823_x_at) / RFU IGFBP7 (11715501_s_at) / Fold change /veh IGFBP7 (11715501_s_at) / RFU REEP3 (11722064_at) / Fold change /veh REEP3 (11722064_at) / RFU IGLL1 (11728026_x_at) / Fold change /veh IGLL1 (11728026_x_at): dose or concentration left out as unconfirmed", "details": "ProbeSet 11755159_a_at; LIST D"}
{"smiles": "Nc1ccc(-c2cccs2)cc1NC(=O)c1ccc2c(c1)cc(C1CC1)n2CCN1CCOCC1", "note": "[ACY-1035]", "values": [{"measurement": "RFU, COG3", "result": 86.80, "unit": "RFU"}]}
